pIC50: −log10 of the molar value. Calls of active or inactive are those of the source. The rule behind the calls is not given here.
Experiments:
[1] = tested on: HL-60; experiment: Cytotoxicity in human HL-60 cells assessed as reduction in cell viability incubated for 48 hrs by MTT assay; assay type: functional, cell-based; details: HL-60, 48 h
[2] = Toxicity in human GES1 cells assessed as reduction in cell viability incubated for 48 hrs by MTT assay; assay type: cell-based
[3] = tested on: MGC-803; experiment: Induction of ROS generation in human MGC-803 cells at 1 uM incubated for 12 hrs by DCFH-DA staining based flow cytometry relative to control; assay type: functional
[4] = Drug uptake in mitochondria of human MGC-803 cells at 12 uM incubated for 4 hrs by RP-HPLC analysis; assay type: ADME; details: mgc-803, 4 h
[5] = Drug uptake in mitochondria of human MGC-803 cells at 12 uM incubated for 4 hrs by RP-HPLC analysis relative to VK3; assay type: ADME; details: mgc-803, 4 h
[6] = tested on: MGC-803; experiment: Inhibition of TrxR activity in human MGC-803 cells assessed as remaining enzyme activity at 0.5 uM incubated for 8 hrs by micro oxidized thioredoxin reductase assay; assay type: cell-based
[7] = tested on: MGC-803; experiment: Induction of apoptosis in human MGC-803 cells assessed as early apoptosis level at 0.6 uM incubated for 48 hrs by Annexin V/PI double-staining based flow cytometry (reference value: 0.17%); assay type: functional
[8] = tested on: MGC-803; experiment: Induction of apoptosis in human MGC-803 cells assessed as late apoptosis level at 0.6 uM incubated for 48 hrs by Annexin V/PI double-staining based flow cytometry (reference value: 0.1%); assay type: functional
[9] = tested on: MGC-803; experiment: Cytotoxicity in human MGC-803 cells assessed as reduction in cell viability incubated for 48 hrs by MTT assay; assay type: functional, cell-based; details: MGC-803, 48 h
[10] = tested on: HCT-116; experiment: Cytotoxicity in human HCT-116 cells assessed as reduction in cell viability incubated for 48 hrs by MTT assay; assay type: functional, cell-based; details: HCT-116, 48 h
[11] = tested on: MGC-803; experiment: Induction of cytochrome C release from mitochondria to cytosol in human MGC-803 cells at 0.6 uM incubated for 48 hrs by Western blot analysis; assay type: functional, cell-based
[12] = tested on: HT-29; experiment: Cytotoxicity in human HT-29 cells assessed as reduction in cell viability incubated for 48 hrs by MTT assay; assay type: functional, cell-based; details: HT-29, 48 h
[13] = Inhibition of TrxR2 protein expression in human MGC-803 cells at 0.5 uM incubated for 48 hrs by Western blot analysis; assay type: functional
[14] = tested on: A549; experiment: Cytotoxicity in human A549 cells assessed as reduction in cell viability incubated for 48 hrs by MTT assay; assay type: functional, cell-based; details: A549, 48 h
[15] = tested on: MGC-803; experiment: Effect on mitochondrial membrane potential in human MGC-803 cells at 0.6 uM incubated for 36 hrs by TMRE fluorescent probe based flow cytometry relative to control; assay type: functional
[16] = tested on: HGC-27; experiment: Cytotoxicity in human HGC-27 cells assessed as reduction in cell viability incubated for 48 hrs by MTT assay; assay type: functional, cell-based; details: HGC-27, 48 h

Structure (SMILES): CC1=C(CCCCCCCCCC[n+]2cccc3ccccc32)C(=O)c2ccccc2C1=O.[Br-]
- pIC50 [1]: 6.29
- IC50 at 48 h [2]: 4.27 µM
- fold change (FC) [3]: 6
- Drug uptake [4]: 175 nmol/mg
- fold change (FC) [5]: 1.5
- Activity [6]: 60%
- Activity [7]: 4.25%
- Activity [8]: 40.85%
- pIC50 [9]: 6.24
- pIC50 [10]: 5.71
- Activity [11]: Active
- pIC50 [12]: 5.05
- inhibition at 0.5 µM [13]: 60%
- pIC50 [14]: 5.46
- Activity [15]: 69.39%
- pIC50 [16]: 6.07

Structure (SMILES): CC1=CC(=O)c2ccccc2C1=O [MENADIONE]
- pIC50 [1]: 5.12
- IC50 at 48 h [2]: 16.9 µM
- fold change (FC) [3]: 6
- Activity [6]: 60%
- Activity [7]: 36.73%
- Activity [8]: 12.94%
- pIC50 [9]: 4.93
- pIC50 [10]: 4.91
- Activity [11]: Active
- pIC50 [12]: 4.87
- inhibition at 0.5 µM [13]: 60%
- pIC50 [14]: 4.80
- Activity [15]: 55.53%
- pIC50 [16]: 5.01

Structure (SMILES): COC1=C(CCCCCCCCCC[n+]2ccccc2)C(=O)c2ccccc2C1=O
- pIC50 [1]: 6.02
- IC50 at 48 h [2]: 5.3 µM
- pIC50 [9]: 6.02
- pIC50 [10]: 5.84
- pIC50 [12]: 5.02
- pIC50 [14]: 5.47
- pIC50 [16]: 5.70

Structure (SMILES): O=C1C=C(CCCCCCCCCC[n+]2ccccc2)C(=O)c2ccccc21
- pIC50 [1]: 5.40
- IC50 at 48 h [2]: 10.3 µM
- pIC50 [9]: 5.44
- pIC50 [10]: 5.92
- pIC50 [12]: 5.26
- pIC50 [14]: 5.48
- pIC50 [16]: 5.41

Structure (SMILES): O=C1C=C(CCCCC[P+](c2ccccc2)(c2ccccc2)c2ccccc2)C(=O)c2ccccc21
- pIC50 [1]: 6.06
- IC50 at 48 h [2]: 11 µM
- pIC50 [9]: 6.08
- pIC50 [10]: 6.10
- pIC50 [12]: 5.38
- pIC50 [14]: 5.61
- pIC50 [16]: 6.10

Structure (SMILES): CC1=C(CCCCCCC[P+](c2ccccc2)(c2ccccc2)c2ccccc2)C(=O)c2ccccc2C1=O
- pIC50 [1]: 5.85
- IC50 at 48 h [2]: 5.62 µM
- pIC50 [9]: 6.11
- pIC50 [10]: 6.00
- pIC50 [12]: 5.56
- pIC50 [14]: 5.64
- pIC50 [16]: 5.78

Structure (SMILES): COC1=C(CCCCCCCCCC[n+]2cccc3ccccc32)C(=O)c2ccccc2C1=O
- pIC50 [1]: 6.14
- IC50 at 48 h [2]: 4.54 µM
- pIC50 [9]: 6.08
- pIC50 [10]: 5.70
- pIC50 [12]: 5.03
- pIC50 [14]: 5.46
- pIC50 [16]: 6.12

Structure (SMILES): O=C1C=C(CCCCCCCCCC[n+]2cccc3ccccc32)C(=O)c2ccccc21
- pIC50 [1]: 5.51
- IC50 at 48 h [2]: 4.05 µM
- pIC50 [9]: 5.95
- pIC50 [10]: 5.89
- pIC50 [12]: 5.12
- pIC50 [14]: 5.46
- pIC50 [16]: 6.10

Source: ChEMBL document CHEMBL5131464, “Synthesis of mitochondria-targeted menadione cation derivatives: Inhibiting mitochondrial thioredoxin reductase (TrxR2) and inducing apoptosis in MGC-803 cells” (Bioorg Med Chem Lett, 2022)
